The text below walks through data of PMC10096180, “Half-Sandwich Type Platinum-Group Metal Complexes of C-Glucosaminyl Azines: Synthesis and Antineoplastic and Antimicrobial Activities” (Molecules, 2023).

Like-named read-outs stand apart in the source and are kept apart here.

Experiment [1] has as its system A2780 cells. Nature of the experiment: MTT reduction assay, early toxicity, 4 h treatment. The format is cell-based. The following applies: Homo sapiens, inhibition at maximum concentration (100 μM) where no plateau, ND = not detectable, read-out: A2780 MTT Max Inhibition. The method, boiled down: (§1)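 Cells plated the day before, exposed to compounds for 4 h, then MTT 0.5 mg/mL for 40–60 min at 37 °C; reduced dye dissolved in DMSO, read at 540 nm relative to vehicle wells. IC50 by four-parameter fit; otherwise % inhibition at 100 μM.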

Experiment [2] deals with primary human dermal fibroblasts. Nature of the experiment: MTT reduction assay, early toxicity, 4 h treatment. The format is cell-based. The following applies: up to 100 μM. In a few lines: as §1
In general terms: Tetrazolium dyes change colour on reduction, which living cells bring about.

The subject of experiment [3] is A2780 cells. Nature of the experiment: SRB binding assay, cytostasis, 48 h treatment. The format is cell-based. In a few lines:
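Ovarian cancer A2780 cells and primary human dermal fibroblasts treated 48 h, TCA-fixed, SRB-stained, absorbance at 540 nm relative to vehicle. IC50 from four-parameter fit when a plateau was reached or inhibition exceeded 90%; otherwise percent inhibition at 100 μM.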

The test system of experiment [4] is Capan2 cells. Nature of the experiment: SRB assay, 48 h. It counts as cell-based. The method, then:
(§2) Figure 8 Assessment of free ligand 3a and complex Ru-3a for cytostatic activity in multiple carcinomas. […] Cells were treated with the compounds in the concentrations indicated for 48 h; then, an SRB assay was performed. Data are represented as average ± SD from three biological replicates; individual assays were performed in duplicates. Values were normalized for vehicle-treated cells; absorbance for vehicle-treated cells equals 1. Statistical significance was assessed using a one-way ANOVA test comparing all values to the lowest concentration of a compound. Before the test, normality was assessed using the Shapiro–Wilk test, and the post hoc test was chosen accordingly. […] An SRB assay measures protein content of cells in correlation with the cell number in an assay well and can therefore be used to assess cell proliferation or long-term cytostasis. Cells were seeded in 96-well plates the day before the assay. Cells were treated with the compounds for 48 h. Then medium was removed, and cells were fixed with 10% trichloroacetic acid. […] Stained cells were washed in 1% acetic acid 5 times; acetic acid was removed, and cells were left to dry. Protein-bound SRB was released by adding 100 μL 10 mM Tris base. Plates were measured in a plate photometer (Thermo Scientific Multiscan GO spectrophotometer, Waltham, MA, USA) at 540 nm. On each plate, wells were designed to contain vehicle-treated cells. […] Statistical analysis was performed using version 8.0.1 of GraphPad Prism. Values were tested for normal distribution using the Shapiro–Wilk normality test. […] In other cases, the percentage of inhibition was taken for the maximum concentration (100 μM).
(In general: The SRB assay estimates cell density from bound dye.)

Experiment [5] deals with ID8 cells. Nature of the experiment: SRB assay, 48 h. It counts as cell-based. The method, then:
as §2

Experiment [6] concerns MCF7 cells. Nature of the experiment: SRB assay, 48 h. The format is cell-based. The method, then:
as §2

Experiment [7] has as its system U251 cells. Nature of the experiment: SRB assay, 48 h. The format is cell-based. The method, then: as §2
Experiment [8] relates to Enterococcus faecalis (ATCC29212). Nature of the experiment: Broth microdilution MIC, reference strain. It counts as cell-based. The following applies: Enterococcus faecalis, 24 h, tested range 0.08–40 μM, read-out: MIC E. faecalis ATCC 29,212. The method, boiled down: (§3)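 EUCAST broth microdilution in Mueller–Hinton broth, inoculum 5.0 × 10^5 CFU/mL, compounds at 0.08–40 μM (twofold dilutions), 24 h at 37 °C. Plates read visually; MIC taken as lowest concentration giving ≥50% inhibition versus drug-free growth control.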
(In general: Dilution methods test growth across graded concentrations, often in twofold steps.)

Experiment [9] relates to Staphylococcus aureus (ATCC29213). Nature of the experiment: Broth microdilution MIC, reference strain. Particulars: Staphylococcus aureus, ATCC29213, 24 h, 0.08–40 μM, read-out: MIC S. aureus ATCC 29213. It counts as cell-based. The method, boiled down: as §3
Experiment [10] has as its system vancomycin-resistant Enterococcus (VRE) clinical isolates. Nature of the experiment: Broth microdilution MIC, clinical VRE isolates. Particulars: Enterococcus, 24 h, 0.08–40 μM. It counts as cell-based, E. faecium. The method, boiled down: (§4)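 S. aureus and E. faecium clinical isolates (Debrecen, 2018–2020; MALDI-TOF-identified) tested by EUCAST broth microdilution in Mueller–Hinton broth at 5.0 × 10^5 CFU/mL across 0.08–40 μM (twofold). After 24 h at 37 °C, visually read; MIC is the lowest concentration giving ≥50% inhibition versus growth control. At least two runs in duplicate.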

Experiment [11] concerns methicillin-resistant Staphylococcus aureus (MRSA) clinical isolates. Nature of the experiment: Broth microdilution MIC, clinical MRSA isolates. The format is cell-based. The following applies: Staphylococcus aureus, 24 h, 0.08–40 μM. In a few lines: as §4
Experiment [12] has as its system A2780 (ovarian). Particulars: Figure 1, complex Ia; read-out: IC50 A2780 (ovarian, cisplatin resistant); cited from earlier work.
For experiment [13], the system named is ID8 (ovarian). Also on record: method as in PMID 36793764, PMID 34638791, PMID 35054999. The following applies: Figure 1, complex Ia; cited from earlier work.
Experiment [14] deals with Capan2 (pancreatic adenocarcinoma). More on the design: method as in PMID 36793764, PMID 34638791, PMID 35054999. The following applies: Figure 1, complex Ia; cited from earlier work.
Experiment [15] has as its system Saos (sarcoma). Also on record: method as in PMID 36793764, PMID 34638791, PMID 35054999. The following applies: Figure 1, complex Ia; cited from earlier work.
The subject of experiment [16] is Gram-positive multiresistant bacteria (Staphylococcus aureus, Enterococcus species). More on the design: method as in PMID 35494644, PMID 36793764. Particulars: Figure 1, Staphylococcus aureus; cited from earlier work.

With `N[C@@H]1[C@@H](OCc2ccccc2)[C@H](OCc2ccccc2)[C@@H](COCc2ccccc2)O[C@H]1c1ccccn1` [Complex 3a, 2-(2′-Amino-2′-deoxy-3′,4′,6′-tri-O-benzyl-β-D-glucopyranosyl)pyridine], the inhibition (commonly the relative decrease from the control value, in per cent) at 100 µM in experiment [1] stood at 70.2%. The “Fibroblast MTT Max Inhibition” value in experiment [2] was 32.22%. Moreover, the 50% inhibitory concentration (IC50) (in general, the point on the concentration scale where inhibition reaches its midpoint) in experiment [3] was 36.2 µM; in experiment [3] (Homo sapiens, A2780, 48 h), above 30 µM; in experiment [4] it was 15 µM; in experiment [4] (Homo sapiens, Capan-2, 48 h), 10 to 30 µM; in experiment [5], 13.1 µM; in experiment [5] (Mus musculus, ID8, 48 h), 10 to 30 µM. Also, the “A2780 SRB Max Inhibition” value in experiment [3] (up to 100 μM, ND = not detectable) is above 90%. The “Capan2 SRB Max Inhibition” value in [4] was above 90%. Further, the “ID8 SRB Max Inhibition” value in experiment [5] is reported as above 90%. Besides, the “MCF7 SRB Max Inhibition” value in experiment [6] was above 90%. Besides, the “U251 SRB Max Inhibition” value in experiment [7] is above 90%. In addition, the MIC (commonly the lowest concentration that inhibits growth of the organism) in [8] was above 40 µM; in [9] it was above 40 µM; in experiment [10] (clinical isolate 25,051 VRE, read-out: MIC 25,051 VRE), above 40 µM; in [10] (clinical isolate 25,498 VRE, read-out: MIC 25,498 VRE) it was above 40 µM; in experiment [10] (clinical isolate 27,085 VRE, read-out: MIC 27,085 VRE) it was above 40 µM; in [11] (clinical isolate 20,426 MRSA, read-out: MIC 20,426 MRSA), above 40 µM. Besides, the minimum inhibitory concentration (MIC) was above 40 µM in [11] (clinical isolate 24,035 MRSA, read-out: MIC 24,035 MRSA); above 40 µM in experiment [11] (clinical isolate 24,268 MRSA, read-out: MIC 24,268 MRSA); above 40 µM in [11] (clinical isolate 24,272 MRSA, read-out: MIC 24,272 MRSA); above 40 µM in [11] (clinical isolate 24,328 MRSA, read-out: MIC 24,328 MRSA); above 40 µM in experiment [11] (clinical isolate 24,408 MRSA, read-out: MIC 24,408 MRSA).

Turning to `Cc1ccc(C(C)C)cc1.F[P-](F)(F)(F)(F)F.O=C(OCC1OC(n2cc(-c3ccc4ccccc4n3)nn2)C(OC(=O)c2ccccc2)C(OC(=O)c2ccccc2)C1OC(=O)c1ccccc1)c1ccccc1.[Cl][Os+]` (centres unmarked) [Ia], the IC50 was 0.43 µM in experiment [12], 0.36 µM in [13], 1.35 µM in [14] and 1.29 µM in experiment [15]. For the same molecule, the “MIC on Gram-positive multiresistant bacteria” value in experiment [16] is 5 to 20 µM.
